Experimental data reported in patent US11998602B2, “Methods for promoting myelination and for treating demyelinating diseases” (The Scripps Research Institute, priority 2018, dated 2024).

Tested on: primary mouse cortical neurons co-cultured with OPCs
Experiment: In vitro OL maturation assay, MBP-colocalization with co-cultured axons
Type: cell-based, rat
Experimental: In vitro OL maturation assay. Cortical and hippocampal tissue was dissected from C57BL/6 mice at embryonic day 14 and dissociated in 0.5% Trypsin with 100 U/mL DNase I diluted in HBSS (+/+) for 10 min at 37° C. Reaction was stopped by supplementing to a final concentration of 10% v/v FBS, 100 μg/mL Soybean Trypsin Inhibitor and 10 U/mL DNase I. Cells were resuspended in plating media consisting of equal volumes of FCS, HBSS (+/+), High-Glucose DMEM with L-glutamine, and F-12 with L-glutamine, then plated onto acid pre-washed German glass coverslips coated with 50 μg/mL Poly-D-Lysine and 20 μg/mL Laminin at a density of 50,000 cells/cm^2. Cells were allowed to attach for 2 hrs and then coverslips were rinsed with PBS before being transferred to a 24-well plate containing 0.5 mL growth media consisting of: Neurobasal medium, B27 supplement (Gibco), 0.5× Glutamax (Thermo), 5 μg/mL gentamycin and 5 μM glutamic acid. Half of the cell media was replaced after 3 DIV with supplemental growth media not containing glutamic acid^47. After 5 DIV, rat-derived cortical OPCs were added to the neuronal culture at a density of 5,000 cells/cm^2. Co-culture media used to resuspend and plate OPCs consisting of a 1:3 mixture of neuronal growth supplement (as above) and oligodendrocyte differentiation media, containing DMEM/F-12 (with L-glutamine), insulin-free N2 supplement, 1× Glutamax, 1×MEM non-essential amino acids, 1× β-mercaptoethanol, 2 ng/mL PDGF and 5 μg/mL gentamycin. All drugs and taurine co-treatment were added once to culture upon plating of OPCs at the following concentrations: 0.5 μM benztropine, 1.0 μM miconazole, each with or without 2 mM taurine. Cultures were maintained by replacing half of the media every three days, maintaining an equivalent concentration of taurine throughout in appropriate wells. […] Co-localization was quantified within regions of interest delineated as the periphery of individual oligodendrocytes. The co-localization index (adapted from a previously described method^48) was calculated as total proportion of co-localized 3D surface area between Tuj1 (neuron) and oligodendrocyte (MBP) over total Tuj1 (neuronal process) area enclosed within each oligodendrocyte process tree as the selected region of interest (ROI, see FIG. 3B″). Mean colocalization values for each condition were normalized to the DMSO condition mean analyzed statistically using Prism software (GraphPad, v7) for two-way ANOVA comparisons (Drug Treatment×Taurine Supplement) with Tukey post-tests for statistical significance. […]

NCCS(=O)(=O)O [taurine, 2-aminoethanesulfonic acid]
MBP-colocalization with axons, treatment alone vs. DMSO (Tukey post hoc) (0.5 μM benztropine, 1.0 μM miconazole or 2 mM taurine alone, 14 days): no significant difference
Index of MBP-colocalization with axons (2 mM taurine in cultures treated with benztropine or miconazole, 14 days of neuron-OPC co-culture): significantly increase
